From patent publication US20240252488A1 (KOREA RESEARCH INSTITUTE OF CHEMICAL TECHNOLOGY, priority 2020, published 2024)

What was measured:
[1] = test system: FADD−/− Jurkat cells; experiment: Necroptosis inhibition assay, TNF-α-induced necroptosis (CellTiter-Glo 2.0); format: cell-based, human; conditions: TNF-α 15 ng/mL; for Necroptosis inhibition assay (Rescue %) 1 μM: compound 1 μM; for Necroptosis inhibition assay (Rescue %) 10 μM: compound 10 μM
Outline: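 Cells at 5.0×10^5 cells/mL were pretreated with compound (final 0.1, 1 and 10 μM) for 30 minutes at room temperature, then given TNF-α at 15 ng/mL final. After 20 to 24 hours at 37° C, 5% CO2, viability was read as ATP luminescence to calculate cytotoxicity and necroptosis inhibition rate.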

[2] = target: T1, MLKL (Homo sapiens, UniProt Q8NB16); experiment: MLKL degradation assay in HepG2 cell line (western blot); format: cell-based; design: endogenous in cells; host or cells: HepG2 or HaCaT; conditions: cell line not given; for Degradation assay (Degradation %) 1 μM: compound 1 μM; for Degradation assay (Degradation %) 10 μM: compound 10 μM
T1 sequence (Q8NB16 1-471): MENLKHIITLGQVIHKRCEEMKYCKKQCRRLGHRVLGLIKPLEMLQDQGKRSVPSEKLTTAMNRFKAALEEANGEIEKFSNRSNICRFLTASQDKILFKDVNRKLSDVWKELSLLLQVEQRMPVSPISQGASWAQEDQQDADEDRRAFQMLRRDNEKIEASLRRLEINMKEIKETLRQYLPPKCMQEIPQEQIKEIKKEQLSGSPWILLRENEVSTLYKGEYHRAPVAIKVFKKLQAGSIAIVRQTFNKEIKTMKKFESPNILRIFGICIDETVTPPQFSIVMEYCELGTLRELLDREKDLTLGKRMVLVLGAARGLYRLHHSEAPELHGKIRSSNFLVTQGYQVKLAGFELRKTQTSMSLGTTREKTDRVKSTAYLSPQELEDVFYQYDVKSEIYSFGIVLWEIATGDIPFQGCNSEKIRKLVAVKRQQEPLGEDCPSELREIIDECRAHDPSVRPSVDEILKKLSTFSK
Outline: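 HepG2 cells were exposed to compound at a final 1 or 10 μM for 20-24 hours at 37 °C, 5% CO2. RIPA lysates were normalized by BCA assay, 10-15 μg protein resolved by SDS-PAGE, and MLKL levels detected by western blot with chemiluminescence.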

[3] = target: T1, MLKL; experiment: Measurement of binding affinity with MLKL receptor (competitive binding assay, Kd); design: made in house; host or cells: HEK 293 cell line (T7 phage in E. coli BL21-derived host is also described)
Outline: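 qPCR of MLKL eluted from liganded beads served as the read-out, from which Kd was derived. The protein was made in HEK 293 cells with a DNA tag, and test compounds competed with the bead-bound ligand at 0.9% final DMSO.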

Row | Structure (SMILES) | Degradation assay (Degradation %) 1 μM [2] [%] | Degradation assay (Degradation %) 10 μM [2] [%] | Kd [3] [nM] | Necroptosis inhibition assay (Rescue %) 1 μM [1] [%] | Necroptosis inhibition assay (Rescue %) 10 μM [1] [%] | Necroptosis inhibition assay (Rescue %) 1 μM ([1]; FADD−/− Jurkat cells) [%] | Necroptosis inhibition assay (Rescue %) 10 μM ([1]; FADD−/− Jurkat cells) [%]
1 | Nc1ncc(-c2cnn(C3CCN(CCCCCCCCCCNC(=O)CNc4ccc5nnn(C6CCC(=O)NC6=O)c(=O)c5c4)CC3)c2)nc1C(=O)O[C@@H](C(=O)Nc1ccc(F)cc1)c1ccccc1 (stereo partly drawn) [TDH-173, (R)-2-((4-fluorophenyl)amino)-2-oxo-1-phenylethyl 3-amino-6-(1-(1-(10-(2-((3-(2,6-dioxopiperidin-3-yl)-4-oxo-3,4-dihydrobenzo[d][1,2,3]triazin-6-yl)amino)acetamido)decyl)piperidin-4-yl)-1H-pyrazol-4-yl)pyrazine-2-carboxylate] | 61.08 | 75.11 | 17 | 47.27 | 35.55 |  | 
2 | Nc1ncc(-c2cnn(C3CCN(C(=O)CCC4CCN(c5cccc6c5C(=O)N(C5CCC(=O)NC5=O)C6=O)CC4)CC3)c2)nc1C(=O)O[C@@H](C(=O)Nc1ccc(F)cc1)c1ccccc1 (stereo partly drawn) [TDH-419, (R)-2-((4-fluorophenyl)amino)-2-oxo-1-phenylethyl 3-amino-6-(1-(1-(3-(1-(2-(2,6-dioxopiperidin-3-yl)-1,3-dioxoisoindolin-4-yl)piperidin-4-yl)propanoyl)piperidin-4-yl)-1H-pyrazol-4-yl)pyrazine-2-carboxylate] | 82.06 | 64.50 | 5.9 |  |  | 26.56 | 18.52
3 | Nc1ncc(-c2cnn(C3CCN(CCOCCNc4ccc5c(c4)C(=O)N(C4CCC(=O)NC4=O)C5=O)CC3)c2)nc1C(=O)O[C@@H](C(=O)Nc1ccc(F)cc1)c1ccccc1 (stereo partly drawn) [TDH-131, (R)-2-((4-fluorophenyl)amino)-2-oxo-1-phenylethyl 3-amino-6-(1-(1-(2-(2-((2-(2,6-dioxopiperidin-3-yl)-1,3-dioxoisoindolin-5-yl)amino)ethoxy)ethyl)piperidin-4-yl)-1H-pyrazol-4-yl)pyrazine-2-carboxylate] | 51.13 | 47.86 | 3.9 | 24.56 | 0.96 |  | 
4 | Nc1ncc(-c2cnn(C3CCN(C[C@H]4CC[C@H](CNc5cccc6c5C(=O)N(C5CCC(=O)NC5=O)C6=O)CC4)CC3)c2)nc1C(=O)O[C@@H](C(=O)Nc1ccc(F)cc1)c1ccccc1 (stereo partly drawn) [TDH-351, (R)-2-((4-fluorophenyl)amino)-2-oxo-1-phenylethyl 3-amino-6-(1-(1-(((1r,4r)-4-(((2-(2,6-dioxopiperidin-3-yl)-1,3-dioxoisoindolin-4-yl)amino)methyl)cyclohexyl)methyl)piperidin-4-yl)-1H-pyrazol-4-yl)pyrazine-2-carboxylate] | 62.4 | 24.61 | 6.1 | 0.74 | 3.39 |  | 
5 | Nc1ncc(-c2cnn(C3CCN(C(=O)CCC4CCN(c5ccc6c(c5)C(=O)N(C5CCC(=O)NC5=O)C6=O)CC4)CC3)c2)nc1C(=O)O[C@@H](C(=O)Nc1ccc(F)cc1)c1ccccc1 (stereo partly drawn) [TDH-420, (R)-2-((4-fluorophenyl)amino)-2-oxo-1-phenylethyl 3-amino-6-(1-(1-(3-(1-(2-(2,6-dioxopiperidin-3-yl)-1,3-dioxoisoindolin-5-yl)piperidin-4-yl)propanoyl)piperidin-4-yl)-1H-pyrazol-4-yl)pyrazine-2-carboxylate] | 74.57 | 51.38 | 10 |  |  | 8.39 | 2.00
6 | Nc1ncc(-c2cnn(C3CCN(CC4CCN(c5cccc6c5C(=O)N(C5CCC(=O)NC5=O)C6=O)CC4)CC3)c2)nc1C(=O)O[C@@H](C(=O)Nc1ccc(F)cc1)c1ccccc1 (stereo partly drawn) [TDH-149, (R)-2-((4-fluorophenyl)amino)-2-oxo-1-phenylethyl 3-amino-6-(1-(1-((1-(2-(2,6-dioxopiperidin-3-yl)-1,3-dioxoisoindolin-4-yl)piperidin-4-yl)methyl)piperidin-4-yl)-1H-pyrazol-4-yl)pyrazine-2-carboxylate] | 48.51 | 77.36 | 40 | 82.1 | 55.19 |  | 
7 | Nc1ncc(-c2cnn(C3CCN(CCC4CCN(c5ccc6nnn(C7CCC(=O)NC7=O)c(=O)c6c5)CC4)CC3)c2)nc1C(=O)OC(C(=O)Nc1ccc(F)cc1)c1ccccc1 (stereo not shown) [TDH-295, 2-((4-fluorophenyl)amino)-2-oxo-1-phenylethyl 3-amino-6-(1-(1-(2-(1-(3-(2,6-dioxopiperidin-3-yl)-4-oxo-3,4-dihydrobenzo[d][1,2,3]triazin-6-yl)piperidin-4-yl)ethyl)piperidin-4-yl)-1H-pyrazol-4-yl)pyrazine-2-carboxylate] | 70.94 | 57.99 | 8.1 | 63.46 | 37.73 |  | 

Stronger by Kd [3], values ahead:

Row | Degradation assay (Degradation %) 1 μM [2] [%] | Degradation assay (Degradation %) 10 μM [2] [%] | Kd [3] [nM] | Structure (SMILES) | Necroptosis inhibition assay (Rescue %) 1 μM [1] [%] | Necroptosis inhibition assay (Rescue %) 10 μM [1] [%] | Necroptosis inhibition assay (Rescue %) 1 μM ([1]; FADD−/− Jurkat cells) [%] | Necroptosis inhibition assay (Rescue %) 10 μM ([1]; FADD−/− Jurkat cells) [%]
8 | 74.72 | 92.96 | 0.64 | Nc1ncc(-c2cnn(C3CCN(CCCN4CC5CC4CN5C(=O)COc4ccc5c(c4)C(=O)N(C4CCC(=O)NC4=O)C5=O)CC3)c2)nc1C(=O)O[C@@H](C(=O)Nc1ccc(F)cc1)c1ccccc1 (stereo partly drawn) [TDH-453, (R)-2-((4-fluorophenyl)amino)-2-oxo-1-phenylethyl 3-amino-6-(1-(1-(3-(5-(2-((2-(2,6-dioxopiperidin-3-yl)-1,3-dioxoisoindolin-5-yl)oxy)acetyl)-2,5-diazabicyclo[2.2.1]heptan-2-yl)propyl)piperidin-4-yl)-1H-pyrazol-4-yl)pyrazine-2-carboxylate] |  |  | 51.32 | 49.41
9 | 69.07 | 58.46 | 1.8 | Nc1ncc(-c2cnn(C3CCN(CC4CCN(C(=O)CCc5ccc6c(c5)C(=O)N(C5CCC(=O)NC5=O)C6=O)CC4)CC3)c2)nc1C(=O)O[C@@H](C(=O)Nc1ccc(F)cc1)c1ccccc1 (stereo partly drawn) [TDH-328, (R)-2-((4-fluorophenyl)amino)-2-oxo-1-phenylethyl 3-amino-6-(1-(1-((1-(3-(2-(2,6-dioxopiperidin-3-yl)-1,3-dioxoisoindolin-5-yl)propanoyl)piperidin-4-yl)methyl)piperidin-4-yl)-1H-pyrazol-4-yl)pyrazine-2-carboxylate] | 52.22 | 31.65 |  | 
10 | 73.39 | 82.10 | 0.99 | Nc1ncc(-c2cnn(C3CCN(C(=O)COC4CCN(C(=O)COc5cccc6c5C(=O)N(C5CCC(=O)NC5=O)C6=O)CC4)CC3)c2)nc1C(=O)O[C@@H](C(=O)Nc1ccc(F)cc1)c1ccccc1 (stereo partly drawn) [TDH-393, (R)-2-((4-fluorophenyl)amino)-2-oxo-1-phenylethyl 3-amino-6-(1-(1-(2-((1-(2-((2-(2,6-dioxopiperidin-3-yl)-1,3-dioxoisoindolin-4-yl)oxy)acetyl)piperidin-4-yl)oxy)acetyl)piperidin-4-yl)-1H-pyrazol-4-yl)pyrazine-2-carboxylate] | 27.21 | 38.01 |  | 
11 | 87.39 | 79.77 | 2.7 | Nc1ncc(-c2cnn(C3CCN(C(=O)COC4CCN(C(=O)C5CCN(c6cccc7c6C(=O)N(C6CCC(=O)NC6=O)C7=O)CC5)CC4)CC3)c2)nc1C(=O)O[C@@H](C(=O)Nc1ccc(F)cc1)c1ccccc1 (stereo partly drawn) [TDH-397, (R)-2-((4-fluorophenyl)amino)-2-oxo-1-phenylethyl 3-amino-6-(1-(1-(2-((1-(1-(2-(2,6-dioxopiperidin-3-yl)-1,3-dioxoisoindolin-4-yl)piperidine-4-carbonyl)piperidin-4-yl)oxy)acetyl)piperidin-4-yl)-1H-pyrazol-4-yl)pyrazine-2-carboxylate] | 53.83 | 37.24 |  | 
